{
  "source": "paper PMC12049414",
  "about": "(Nature Communications, 2025)",
  "biological_target": "T1, human vesicular polyamine transporter (hVPAT) (Homo sapiens, UniProt Q6NT16)",
  "T1 sequence (Q6NT16 1-456)": "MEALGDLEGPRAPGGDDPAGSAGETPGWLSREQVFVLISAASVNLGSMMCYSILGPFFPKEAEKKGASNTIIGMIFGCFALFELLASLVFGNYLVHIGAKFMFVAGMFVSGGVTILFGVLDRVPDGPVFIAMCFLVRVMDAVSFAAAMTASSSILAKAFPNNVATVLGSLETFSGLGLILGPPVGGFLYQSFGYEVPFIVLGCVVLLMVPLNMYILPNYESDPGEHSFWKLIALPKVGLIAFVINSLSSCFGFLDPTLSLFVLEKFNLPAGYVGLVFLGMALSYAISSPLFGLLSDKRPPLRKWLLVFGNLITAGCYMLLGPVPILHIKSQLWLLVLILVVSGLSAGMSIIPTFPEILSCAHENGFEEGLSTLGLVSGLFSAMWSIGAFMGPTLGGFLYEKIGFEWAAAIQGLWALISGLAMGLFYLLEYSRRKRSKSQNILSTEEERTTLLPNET",
  "assay": "cryo-EM structure at […] Å",
  "assay_type": "biochemical",
  "data": [
    {"smiles": "COc1cc2c(cc1OC)C1CC(=O)C(CC(C)C)CN1CC2", "note": "(stereo not shown) [TBZ, tetrabenazine]", "values": [
      {"measurement": "Ki", "result": 2000, "unit": "nM"}
    ]}
  ]
}
